System: MV-4-11 cells
Experiment: Gene expression microarray analysis (Affymetrix PrimeView) and GSEA
Assay type: cell-based, human
Parameters: RFU PODN (11730768_x_at) / Fold change /veh PODN (11730768_x_at) / RFU LINC00158 (11744669_a_at) / Fold change /veh LINC00158 (11744669_a_at) / RFU DUSP10 (11751237_a_at) / Fold change /veh DUSP10 (11751237_a_at) / RFU ID3 (11757404_x_at) / Fold change /veh ID3 (11757404_x_at) / RFU PLEKHG5 (11737974_s_at) / Fold change /veh PLEKHG5 (11737974_s_at) / RFU LRRC4B (11730491_at) / Fold change /veh LRRC4B (11730491_at) / RFU GIMAP4 (11747438_a_at) / Fold change /veh GIMAP4 (11747438_a_at) / RFU KRT8 (11758183_x_at) / Fold change /veh KRT8 (11758183_x_at) / RFU CNN1 (11734310_a_at) / Fold change /veh CNN1 (11734310_a_at) / RFU VPS37D (11726825_at) / Fold change /veh VPS37D (11726825_at) / RFU C10orf10 (11716522_x_at) / Fold change /veh C10orf10 (11716522_x_at) / RFU KIR2DL2 /// KIR2DL4 /// KIR2DL5A /// KIR2DL5B /// KIR2DS1 /// KIR2DS2 /// KIR2DS3 /// KIR2DS4 /// KIR3DL3 /// KIR3DL3 /// KIR3DS1 (11738374_at) / Fold change /veh KIR2DL2 /// KIR2DL4 /// KIR2DL5A /// KIR2DL5B /// KIR2DS1 /// KIR2DS2 /// KIR2DS3 /// KIR2DS4 /// KIR3DL3 /// KIR3DL3 /// KIR3DS1 (11738374_at) / RFU C1QL1 (11718748_at) / Fold change /veh C1QL1 (11718748_at) / RFU TMPRSS4 (11747572_a_at) / Fold change /veh TMPRSS4 (11747572_a_at) / RFU HAMP (11756126_x_at) / Fold change /veh HAMP (11756126_x_at) / RFU RNFT2 (11725882_a_at) / Fold change /veh RNFT2 (11725882_a_at) / RFU NR4A2 (11747474_a_at) / Fold change /veh NR4A2 (11747474_a_at) / RFU ABCC12 (11746883_a_at) / Fold change /veh ABCC12 (11746883_a_at) / RFU TMEM136 (11760407_x_at) / Fold change /veh TMEM136 (11760407_x_at) / RFU CLDN22 /// WWC2 (11732394_at) / Fold change /veh CLDN22 /// WWC2 (11732394_at) / RFU HLA-DPB1 (11760878_x_at) / Fold change /veh HLA-DPB1 (11760878_x_at) / RFU SPINT1 (11716480_a_at) / Fold change /veh SPINT1 (11716480_a_at) / RFU GAP43 (11754022_s_at) / Fold change /veh GAP43 (11754022_s_at) / RFU A4GNT (11735810_at) / Fold change /veh A4GNT (11735810_at) / RFU PRB3 (11715151_x_at) / Fold change /veh PRB3 (11715151_x_at) / RFU TUBB4B (11761932_at) / Fold change /veh TUBB4B (11761932_at) / RFU CAPN14 (11732068_a_at) / Fold change /veh CAPN14 (11732068_a_at) / RFU TMCC2 (11721928_a_at) / Fold change /veh TMCC2 (11721928_a_at) / RFU IRGQ (11745062_a_at) / Fold change /veh IRGQ (11745062_a_at) / RFU FAM174B (11720279_a_at) / Fold change /veh FAM174B (11720279_a_at) / RFU TMPRSS4 (11748680_a_at) / Fold change /veh TMPRSS4 (11748680_a_at) / RFU FAM212B (11763350_a_at) / Fold change /veh FAM212B (11763350_a_at) / RFU PLEKHG5 (11743358_a_at) / Fold change /veh PLEKHG5 (11743358_a_at) / RFU ZSCAN30 (11745921_a_at) / Fold change /veh ZSCAN30 (11745921_a_at) / RFU CMKLR1 (11741424_a_at) / Fold change /veh CMKLR1 (11741424_a_at) / RFU LOC101060620 /// MAPK8IP1 (11723275_at) / Fold change /veh LOC101060620 /// MAPK8IP1 (11723275_at) / RFU SPTSSB (11747773_x_at) / Fold change /veh SPTSSB (11747773_x_at) / RFU PRSS12 (11739890_at) / Fold change /veh PRSS12 (11739890_at) / RFU BIN1 (11741810_x_at) / Fold change /veh BIN1 (11741810_x_at) / RFU WNT11 (11732464_a_at) / Fold change /veh WNT11 (11732464_a_at) / RFU C10orf10 (11716521_a_at) / Fold change /veh C10orf10 (11716521_a_at) / RFU C5orf56 (11738089_at) / Fold change /veh C5orf56 (11738089_at) / RFU CYB561 (11721691_x_at) / Fold change /veh CYB561 (11721691_x_at) / RFU ANKRD19P (11752326_a_at) / Fold change /veh ANKRD19P (11752326_a_at) / RFU OR2T12 /// OR2T33 /// OR2T8 (11738714_s_at) / Fold change /veh OR2T12 /// OR2T33 /// OR2T8 (11738714_s_at) / RFU VCAN (11748164_a_at) / Fold change /veh VCAN (11748164_a_at) / RFU JSRP1 (11732532_at) / Fold change /veh JSRP1 (11732532_at) / RFU KRTAP10-11 (11738290_x_at) / Fold change /veh KRTAP10-11 (11738290_x_at) / RFU MYO3A (11730013_a_at) / Fold change /veh MYO3A (11730013_a_at) / RFU EBF3 (11725865_a_at) / Fold change /veh EBF3 (11725865_a_at) / RFU CAMK2N1 (11719241_x_at) / Fold change /veh CAMK2N1 (11719241_x_at) / RFU C5orf56 (11738088_a_at) / Fold change /veh C5orf56 (11738088_a_at) / RFU OLFML3 (11715873_a_at) / Fold change /veh OLFML3 (11715873_a_at) / RFU LOC100653217 /// NTM (11731650_a_at) / Fold change /veh LOC100653217 /// NTM (11731650_a_at) / RFU MAPK11 (11762145_a_at) / Fold change /veh MAPK11 (11762145_a_at) / RFU FIZ1 (11724087_x_at) / Fold change /veh FIZ1 (11724087_x_at) / RFU OASL (11726364_x_at) / Fold change /veh OASL (11726364_x_at) / RFU SOX15 (11748057_x_at) / Fold change /veh SOX15 (11748057_x_at) / RFU CD79A (11719716_a_at) / Fold change /veh CD79A (11719716_a_at) / RFU HIST1H1D (11736915_at) / Fold change /veh HIST1H1D (11736915_at) / RFU CASKIN2 (11723855_a_at) / Fold change /veh CASKIN2 (11723855_a_at) / RFU LOC730098 (11760151_x_at) / Fold change /veh LOC730098 (11760151_x_at) / RFU OR4N2 (11742367_at) / Fold change /veh OR4N2 (11742367_at) / RFU PRRT2 (11749266_a_at) / Fold change /veh PRRT2 (11749266_a_at) / RFU SNX32 (11753110_a_at) / Fold change /veh SNX32 (11753110_a_at) / RFU CDHR5 (11726645_a_at) / Fold change /veh CDHR5 (11726645_a_at) / RFU RCAN1 (11760418_a_at) / Fold change /veh RCAN1 (11760418_a_at) / RFU FAM167A (11723789_a_at) / Fold change /veh FAM167A (11723789_a_at) / RFU FAM26E (11764081_at) / Fold change /veh FAM26E (11764081_at) / RFU ISYNA1 (11749810_s_at) / Fold change /veh ISYNA1 (11749810_s_at) / RFU ACY1 (11761880_at) / Fold change /veh ACY1 (11761880_at) / RFU 11764098_at / Fold change /veh 11764098_at / RFU SAMD14 (11745864_x_at) / Fold change /veh SAMD14 (11745864_x_at) / RFU NPB (11741838_a_at) / Fold change /veh NPB (11741838_a_at) / RFU TMPRSS6 (11731388_a_at) / Fold change /veh TMPRSS6 (11731388_a_at) / RFU KRTAP10-2 (11738614_at) / Fold change /veh KRTAP10-2 (11738614_at) / RFU ARHGAP8 /// PRR5-ARHGAP8 (11727945_x_at) / Fold change /veh ARHGAP8 /// PRR5-ARHGAP8 (11727945_x_at) / RFU KRTAP5-7 /// NADSYN1 (11734609_at) / Fold change /veh KRTAP5-7 /// NADSYN1 (11734609_at) / RFU RASL12 (11751679_a_at) / Fold change /veh RASL12 (11751679_a_at) / RFU CDKN2B (11736163_a_at) / Fold change /veh CDKN2B (11736163_a_at) / RFU PRF1 (11729649_at) / Fold change /veh PRF1 (11729649_at) / RFU, ZNF638 /// ZNF638-IT1 / Fold change vs veh, ZNF638 /// ZNF638-IT1 / RFU, PANK3 / Fold change vs veh, PANK3 / RFU, SH3YL1 / Fold change vs veh, SH3YL1 / RFU, ZEB2 / Fold change vs veh, ZEB2 / RFU, NRIP1 / Fold change vs veh, NRIP1 / RFU, PTTG1IP / Fold change vs veh, PTTG1IP / RFU, CAPN2 / Fold change vs veh, CAPN2 / RFU, MED14 / Fold change vs veh, MED14 / RFU, SNORA58 / Fold change vs veh, SNORA58 / RFU, C1orf63 / Fold change vs veh, C1orf63 / RFU, LRRFIP1 / Fold change vs veh, LRRFIP1 / RFU, NDUFAF7 / Fold change vs veh, NDUFAF7 / RFU, SLC12A2 / Fold change vs veh, SLC12A2 / RFU, IBTK / Fold change vs veh, IBTK / RFU, ESF1 / Fold change vs veh, ESF1 / Fold change vs veh, TMEM50B / RFU, TAOK1 / Fold change vs veh, TAOK1 / RFU, ACBD3 / Fold change vs veh, ACBD3 / RFU, TMA16 / Fold change vs veh, TMA16 / RFU, RWDD3 / Fold change vs veh, RWDD3 / RFU, BCAT1 / Fold change vs veh, BCAT1 / RFU, EDEM3 / Fold change vs veh, EDEM3 / RFU, TMEM33 / Fold change vs veh, TMEM33 / RFU, WDR75 / Fold change vs veh, WDR75 / RFU, AHCTF1 / Fold change vs veh, AHCTF1 / RFU, TFRC / Fold change vs veh, TFRC / RFU, ZDHHC17 / Fold change vs veh, ZDHHC17 / RFU, NOM1 / Fold change vs veh, NOM1 / RFU, ARL8B / Fold change vs veh, ARL8B / RFU, ZBTB11 / Fold change vs veh, ZBTB11 / RFU, TAMM41 / Fold change vs veh, TAMM41 / RFU, KIAA1704 /// LOC100996395 / Fold change vs veh, KIAA1704 /// LOC100996395 / RFU, ING1 / Fold change vs veh, ING1 / RFU, TRMT61B / Fold change vs veh, TRMT61B / RFU, FUBP3 / Fold change vs veh, FUBP3 / RFU, TP53 / Fold change vs veh, TP53 / RFU, TNKS2 / Fold change vs veh, TNKS2 / RFU, ZFP14 / Fold change vs veh, ZFP14 / RFU, ACTR2 / Fold change vs veh, ACTR2 / RFU, PPP3R1 / Fold change vs veh, PPP3R1 / RFU, PIK3R1 / Fold change vs veh, PIK3R1 / RFU, HNRNPA1 / Fold change vs veh, HNRNPA1 / RFU, RNF170 / Fold change vs veh, RNF170 / RFU, ZNF28 / Fold change vs veh, ZNF28 / RFU, RNGTT / Fold change vs veh, RNGTT / RFU, OGT / Fold change vs veh, OGT / RFU, BRD1 / Fold change vs veh, BRD1 / RFU, MARS / Fold change vs veh, MARS / RFU, ZNF655 / Fold change vs veh, ZNF655 / RFU, FAHD1 / Fold change vs veh, FAHD1 / RFU, BDP1 / Fold change vs veh, BDP1 / RFU, LRRCC1 / Fold change vs veh, LRRCC1 / RFU, ARID1A / Fold change vs veh, ARID1A / RFU, ZNF146 / Fold change vs veh, ZNF146 / RFU, ZNF330 / Fold change vs veh, ZNF330 / RFU, GPN3 / Fold change vs veh, GPN3 / RFU, C9orf123 / Fold change vs veh, C9orf123 / RFU, N4BP2L2 / Fold change vs veh, N4BP2L2 / RFU, ARFIP1 / Fold change vs veh, ARFIP1 / RFU, FAM179B / Fold change vs veh, FAM179B / RFU, BCL10 / Fold change vs veh, BCL10 / RFU, UHRF1BP1L / Fold change vs veh, UHRF1BP1L / RFU, BET1 / Fold change vs veh, BET1 / RFU, CNOT2 / Fold change vs veh, CNOT2 / RFU, ZNF268 / Fold change vs veh, ZNF268 / Fold change vs veh, ZNF507 / RFU, DGCR2 / Fold change vs veh, DGCR2 / RFU, WDSUB1 / Fold change vs veh, WDSUB1 / Fold change vs veh, HSP90B1 /// MIR3652 / RFU, ADSS / Fold change vs veh, ADSS / RFU, GK / Fold change vs veh, GK / RFU, ZNF148 / Fold change vs veh, ZNF148 / RFU, TAF9 / Fold change vs veh, TAF9 / RFU, SLC1A5 / Fold change vs veh, SLC1A5 / RFU, SLMO2 / Fold change vs veh, SLMO2 / RFU, ABCC4 / Fold change vs veh, ABCC4 / RFU, LOC101060439 /// RAP1B / Fold change vs veh, LOC101060439 /// RAP1B / RFU, RFX7 / Fold change vs veh, RFX7 / RFU, GTPBP10 / Fold change vs veh, GTPBP10 / RFU, CNEP1R1 / Fold change vs veh, CNEP1R1 / RFU, BIVM-ERCC5 /// ERCC5 / Fold change vs veh, BIVM-ERCC5 /// ERCC5 / RFU, ILF3 / Fold change vs veh, ILF3 / RFU 11762660_at / Fold change /veh 11762660_at / RFU VCAN (11757783_s_at) / Fold change /veh VCAN (11757783_s_at) / RFU DDX43 (11728927_at) / Fold change /veh DDX43 (11728927_at) / RFU KRT8 (11758188_x_at) / Fold change /veh KRT8 (11758188_x_at) / RFU NKD1 (11759106_at) / Fold change /veh NKD1 (11759106_at) / RFU SRD5A1 (11742802_a_at) / Fold change /veh SRD5A1 (11742802_a_at) / RFU TPSAB1 /// TPSB2 (11721975_s_at) / Fold change /veh TPSAB1 /// TPSB2 (11721975_s_at) / RFU GSTM3 (11746129_a_at) / Fold change /veh GSTM3 (11746129_a_at) / RFU IL23R (11737362_x_at) / Fold change /veh IL23R (11737362_x_at) / RFU TMEM51 (11727254_a_at) / Fold change /veh TMEM51 (11727254_a_at) / RFU PIWIL2 (11732686_x_at) / Fold change /veh PIWIL2 (11732686_x_at) / RFU ORM1 (11744905_x_at) / Fold change /veh ORM1 (11744905_x_at) / RFU CCDC152 (11743942_at) / Fold change /veh CCDC152 (11743942_at) / RFU ECM1 (11717891_a_at) / Fold change /veh ECM1 (11717891_a_at) / RFU IL23R (11748794_a_at) / Fold change /veh IL23R (11748794_a_at) / RFU TNFAIP8L3 (11732012_x_at) / Fold change /veh TNFAIP8L3 (11732012_x_at) / RFU MBOAT4 (11741988_at) / Fold change /veh MBOAT4 (11741988_at) / RFU 11764193_at / Fold change /veh 11764193_at / RFU TMEM53 (11763286_at) / Fold change /veh TMEM53 (11763286_at) / RFU MAGEB2 (11727129_at) / Fold change /veh MAGEB2 (11727129_at) / RFU TMEM200A (11744735_a_at) / Fold change /veh TMEM200A (11744735_a_at) / RFU CCDC152 (11751479_a_at) / Fold change /veh CCDC152 (11751479_a_at) / RFU FAM211A (11726209_a_at) / Fold change /veh FAM211A (11726209_a_at) / RFU RGS16 (11746705_a_at) / Fold change /veh RGS16 (11746705_a_at) / RFU VCAN (11755009_s_at) / Fold change /veh VCAN (11755009_s_at) / RFU RHOB (11743442_s_at) / Fold change /veh RHOB (11743442_s_at) / RFU RGS16 (11720943_a_at) / Fold change /veh RGS16 (11720943_a_at) / RFU RGS16 (11720944_at) / Fold change /veh RGS16 (11720944_at) / RFU, VPS4B / Fold change vs veh, VPS4B / RFU, CREB1 / Fold change vs veh, CREB1 / RFU, DNAJC13 / Fold change vs veh, DNAJC13 / RFU, GNAQ / Fold change vs veh, GNAQ / RFU, CDK5R1 / Fold change vs veh, CDK5R1 / RFU, ZRANB3 / Fold change vs veh, ZRANB3 / RFU, CUL4A / Fold change vs veh, CUL4A / RFU, CCNY / Fold change vs veh, CCNY / RFU, UFL1 / Fold change vs veh, UFL1 / RFU, COG3 / Fold change vs veh, COG3 / RFU, DIAPH2 / Fold change vs veh, DIAPH2 / RFU, SKA2 / Fold change vs veh, SKA2 / RFU, AFF3 / Fold change vs veh, AFF3 / RFU, LMF1 / Fold change vs veh, LMF1 / RFU, IPO11 / Fold change vs veh, IPO11 / RFU, DFFB / Fold change vs veh, DFFB / RFU, FOXP1 / Fold change vs veh, FOXP1 / RFU, CARD8 / Fold change vs veh, CARD8 / RFU, STRN3 / Fold change vs veh, STRN3 / RFU, ADK / Fold change vs veh, ADK / RFU, RASSF2 / Fold change vs veh, RASSF2 / RFU, WIPF1 / Fold change vs veh, WIPF1 / RFU, LARP1B / Fold change vs veh, LARP1B / RFU, RASA1 / Fold change vs veh, RASA1 / RFU, RB1 / Fold change vs veh, RB1 / RFU, PPFIA1 / Fold change vs veh, PPFIA1 / RFU, MAT2A / Fold change vs veh, MAT2A / RFU, CCT5 / Fold change vs veh, CCT5 / RFU, WDR92 / Fold change vs veh, WDR92 / RFU, CUX1 / Fold change vs veh, CUX1 / RFU, TTC7A / Fold change vs veh, TTC7A / RFU, TMEM135 / Fold change vs veh, TMEM135 / RFU, DEPTOR / Fold change vs veh, DEPTOR / RFU, CPM / Fold change vs veh, CPM / RFU, DNAJB6 / Fold change vs veh, DNAJB6 / RFU, CACNA2D3 / Fold change vs veh, CACNA2D3 / RFU, DTX4 / Fold change vs veh, DTX4 / RFU, TFCP2 / Fold change vs veh, TFCP2 / RFU, GMCL1 /// GMCL1P1 / Fold change vs veh, GMCL1 /// GMCL1P1 / RFU, AEBP2 / Fold change vs veh, AEBP2 / RFU, SNHG1 /// SNORD22 /// SNORD25 /// SNORD26 /// SNORD27 /// SNORD28 /// SNORD29 /// SNORD31 / Fold change vs veh, SNHG1 /// SNORD22 /// SNORD25 /// SNORD26 /// SNORD27 /// SNORD28 /// SNORD29 /// SNORD31 / Fold change (Aza/veh), C12orf56 (ProbeSet 11735607_a_at) / Fold change (ACY-1035/veh), C12orf56 (ProbeSet 11735607_a_at) / Fold change (Aza/veh), FGFR1OP (ProbeSet 11751329_s_at) / Fold change (ACY-1035/veh), FGFR1OP (ProbeSet 11751329_s_at) / Fold change (Aza/veh), VPS36 (ProbeSet 11739960_a_at) / Fold change (ACY-1035/veh), VPS36 (ProbeSet 11739960_a_at) / RFU SYPL1 (11715823_x_at) / Fold change /veh SYPL1 (11715823_x_at) / RFU IGFBP7 (11715501_s_at) / Fold change /veh IGFBP7 (11715501_s_at) / RFU REEP3 (11722064_at) / Fold change /veh REEP3 (11722064_at) / RFU IGLL1 (11728026_x_at) / Fold change /veh IGLL1 (11728026_x_at): dose or concentration left out as unconfirmed
Conditions: ProbeSet 11727641_at; LIST B

Nc1ccc(-c2cccs2)cc1NC(=O)c1ccc2c(c1)cc(C1CC1)n2CCN1CCOCC1 [ACY-1035]
RFU, NOM1: 160.01 RFU

Source: paper PMC5218480 (PLoS ONE, 2017)
